# Measured values as given in EP4610269A1, “UROKINASE PLASMINOGEN ACTIVATOR SURFACE RECEPTOR (UPAR) LIGANDS FOR DIAGNOSTIC OR THERAPEUTIC USE” (3B Pharmaceuticals GmbH, priority 2024, dated 2025).
# Read-outs that look alike come from different tables or passages of the source. *1 amine or outer side, *2 acyl side, *3 side chain or, on linkers, in order; H or OH if unused. Where a SMILES comes first, the peptide text is derived from it. Bridges are numbered along the chain shown (N, C = ends). Side-chain parts run from the residue outwards. [ ]: non-standard residue; d: D form. The star is where a group is joined. X3 = NC(=O)[C@H](CCCCNC(=O)CN1CCN(CC(=O)O)CCN(CC(=O)O)CCN(CC(=O)O)CC1)NC(=O)CCC(=O)NCCCOCCOCCOCCCN*; DOTA = O=C(O)CN1CCN(CC(=O)O)CCN(CC(=O)*)CCN(CC(=O)O)CC1; Phe(4-Cl) = N[C@@H](Cc1ccc(Cl)cc1)C(=O)O; Pro(cis-4-F) = O=C(O)[C@@H]1C[C@H](F)CN1; Dopa = N[C@@H](Cc1ccc(O)c(O)c1)C(=O)O; Glutaryl = O=C(CCCC(=O)[*:2])[*:1]; Hyp = O=C(O)[C@@H]1C[C@@H](O)CN1; Pentanoyl(4-Me) = CC(C)CCC(=O)*; Cit = NC(=O)NCCC[C@H](N)C(=O)O; Butoxycarbonyl = CCCCOC(=O)*; Tle = CC(C)(C)[C@H](N)C(=O)O; NMeC = CN[C@@H](CS)C(=O)O; hCys = N[C@@H](CCS)C(=O)O; dDap = NC[C@@H](N)C(=O)O; Dab = NCC[C@H](N)C(=O)O; Nva = CCC[C@H](N)C(=O)O; Hexanoyl = CCCCCC(=O)*; Pentanoyl = CCCCC(=O)*; Aib = CC(C)(N)C(=O)O; Butyryl = CCCC(=O)*
# Tests used:
# [1] = molecular target: T1, uPAR-expressing HEC-265 human endometrial adenocarcinoma cells (Homo sapiens, UniProt Q03405); assay: Competitive FACS binding assay; conditions: pIC50 category of FACS binding
# T1 construct: Cell surface uPAR-expressing HEC-265 human endometrial adenocarcinoma cells; host or cells: HEC-265
# T1 sequence (Q03405 23-335): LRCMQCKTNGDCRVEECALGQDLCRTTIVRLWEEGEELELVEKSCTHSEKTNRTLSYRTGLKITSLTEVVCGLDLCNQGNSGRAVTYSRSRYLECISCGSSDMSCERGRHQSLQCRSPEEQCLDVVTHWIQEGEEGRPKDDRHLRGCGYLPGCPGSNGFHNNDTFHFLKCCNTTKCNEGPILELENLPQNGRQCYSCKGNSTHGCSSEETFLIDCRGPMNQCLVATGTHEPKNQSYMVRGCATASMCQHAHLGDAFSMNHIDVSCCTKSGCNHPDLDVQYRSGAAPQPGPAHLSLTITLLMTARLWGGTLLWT
# In short: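 Competitive displacement of a 10 nM biotinylated peptide from HEC-265 cells (1 h, 4 °C, PBS/1% BSA), detected via APC-streptavidin by flow cytometry. pIC50 from four-parameter logistic fit of median fluorescence versus concentration.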
# human uPAR (uPAR-Fc) = molecular target: T2, human uPAR (uPAR-Fc) (Homo sapiens, UniProt Q03405); assay: Surface plasmon resonance (SPR) assay, single cycle kinetics; assay type: binding; conditions: pKD category for uPAR SPR activity assay, uPAR-Fc on Protein A-Chip, 25°C, read-out: pKD CAT (converted)
# T2 construct: comprising amino acids Leu23-Arg303 according to UniProt entry Q03405.1; purchased R&D Systems 10378-UK-100
# T2 sequence (Q03405 23-303): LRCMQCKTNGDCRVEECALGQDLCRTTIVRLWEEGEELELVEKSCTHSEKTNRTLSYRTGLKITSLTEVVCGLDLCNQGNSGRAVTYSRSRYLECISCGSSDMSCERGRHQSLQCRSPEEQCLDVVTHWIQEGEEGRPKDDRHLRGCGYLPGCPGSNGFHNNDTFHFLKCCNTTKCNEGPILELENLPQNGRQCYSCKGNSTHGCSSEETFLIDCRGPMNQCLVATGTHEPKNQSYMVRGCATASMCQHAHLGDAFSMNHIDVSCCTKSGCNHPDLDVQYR
# In short: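 uPAR-Fc (Leu23-Arg303 extracellular domains, human IgG1 Fc) captured on Protein A chip to ~2000 RU; single-cycle kinetics at 25°C in HEPES running buffer pH 7.4 with 0.1% DMSO. KD from double-referenced sensorgrams fitted to 1:1 Langmuir model, reported as pKD.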
Structure (SMILES),IC50 [1] [nM],Kd (human uPAR (uPAR-Fc)) [nM],Kd (human uPAR (uPAR-Fc); single cycle kinetics) [nM]
"CCCCCC(=O)N[C@@H](CC(=O)O)C(=O)N[C@@H](CC(C)C)C(=O)N[C@H]1CSSC[C@@H](C(=O)NCCCOCCOCCOCCCNC(=O)CCC(=O)N[C@@H](CCCCNC(=O)CN2CCN(CC(=O)O)CCN(CC(=O)O)CCN(CC(=O)O)CC2)C(N)=O)NC(=O)[C@H](CC(C)C)NC(=O)[C@H]([C@@H](C)CC)NC(=O)[C@H](C)NC(=O)[C@@H]2CCCN2C(=O)[C@H](Cc2ccccc2)NC(=O)[C@H](Cc2ccc(O)cc2)NC(=O)[C@H](CCSC)NC(=O)[C@H](CCCNC(=N)N)NC1=O [UPAR-150, Hex-Asp-Leu-[Cys-Arg-Met-Tyr-Phe-Pro-Ala-Ile-Leu-Cys]-Ttds-Lys(DOTA)-NH2] (Hexanoyl-DLCRMYFPAILC-X3; disulfide 3-12)",39.8 to 100,1.58 to 10,
"CCCCC(=O)N[C@H]1CCSSC[C@@H](C(N)=O)NC(=O)[C@H](CCC)NC(=O)[C@H]([C@@H](C)CC)NC(=O)[C@@H]2C[C@@H](O)CN2C(=O)[C@@H]2CCCN2C(=O)[C@H](Cc2ccccc2)NC(=O)[C@H](Cc2ccc(O)cc2)NC(=O)[C@H](CCC(N)=O)NC(=O)[C@H](CCCNC(=N)N)NC1=O [UPAR-300, Pent-[Hcy-Arg-Gln-Tyr-Phe-Pro-Hyp-Ile-Nva-Cys]-NH2] (Pentanoyl-[hCys]RQYFP[Hyp]I[Nva]C-NH2; disulfide 1-10)",12.6 to 31.6,1.58 to 10,
"CCCC(=O)N[C@H]1CSSC[C@@H](C(N)=O)NC(=O)[C@H](CC(C)C)NC(=O)[C@H]([C@@H](C)CC)NC(=O)[C@@H](C)NC(=O)[C@@H]2CCCN2C(=O)[C@H](Cc2ccccc2)NC(=O)[C@H](Cc2ccc(O)cc2)NC(=O)[C@H](CCC(N)=O)NC(=O)[C@H](CCCNC(N)=O)NC1=O [UPAR-139, But-[Cys-Cit-Gln-Tyr-Phe-Pro-ala-Ile-Leu-Cys]-NH2] (Butyryl-C[Cit]QYFP[dA]ILC-NH2; disulfide 1-10)",12.6 to 31.6,1.58 to 10,
"CCC[C@@H]1NC(=O)[C@H]([C@@H](C)CC)NC(=O)[C@@H]2C[C@@H](O)CN2C(=O)[C@@H]2CCCN2C(=O)[C@H](Cc2ccccc2)NC(=O)[C@H](Cc2ccc(O)cc2)NC(=O)[C@H](CCC(N)=O)NC(=O)[C@H](CCCNC(N)=O)NC(=O)[C@@H](N(C)C(=O)[C@H](CC(C)C)NC(=O)CN2CCN(CC(=O)O)CCN(CC(=O)O)CCN(CC(=O)O)CC2)CSSC[C@@H](C(N)=O)NC1=O [UPAR-142, DOTA-Leu-[Nmc-Cit-Gln-Tyr-Phe-Pro-Hyp-Ile-Nva-Cys]-NH2] ({DOTA}-L[NMeC][Cit]QYFP[Hyp]I[Nva]C-NH2; disulfide 2-11)",≥ 126,10 to 100,
"CCCCOC(=O)N[C@H]1CSSC[C@@H](C(N)=O)NC(=O)[C@H](CCC)NC(=O)[C@H]([C@@H](C)CC)NC(=O)[C@@H]2C[C@@H](O)CN2C(=O)[C@@H]2C[C@H](F)CN2C(=O)[C@H](Cc2ccccc2)NC(=O)[C@H](Cc2ccc(O)cc2)NC(=O)[C@H](CCCCNC(=O)CN2CCN(CC(=O)O)CCN(CC(=O)O)CCN(CC(=O)O)CC2)NC(=O)[C@H]([C@@H](C)O)NC1=O [UPAR-237, Butoc-[Cys-Thr-Lys(DOTA)-Tyr-Phe-4Cfp-Hyp-Ile-Nva-Cys]-NH2] (Butoxycarbonyl-CTK(DOTA)YF[Pro(cis-4-F)][Hyp]I[Nva]C-NH2; disulfide 1-10)",≤ 10,< 1.58,
"CC[C@H](C)[C@@H]1NC(=O)[C@@H](C)NC(=O)[C@@H]2CCCN2C(=O)[C@H](Cc2ccccc2)NC(=O)[C@H](Cc2ccc(O)cc2)NC(=O)[C@H](CCCCNC(=O)CN2CCN(CC(=O)O)CCN(CC(=O)O)CCN(CC(=O)O)CC2)NC(=O)[C@@H](CC(=O)O)NC(=O)[C@@H](NC(=O)[C@H](CC(C)C)NC(=O)[C@H](CC(=O)O)NC(C)=O)CSSC[C@@H](C(N)=O)NC(=O)[C@H](CC(C)C)NC1=O [UPAR-392, Ac-Asp-Leu-[Cys-asp-Lys(DOTA)-Tyr-Phe-Pro-ala-Ile-Leu-Cys]-NH2] (Ac-DLC[dD]K(DOTA)YFP[dA]ILC-NH2; disulfide 3-12)",≥ 126,,> 100
"CCCCC(=O)N[C@H]1CSSC[C@@H](C(N)=O)NC(=O)[C@H](CCC)NC(=O)[C@H]([C@@H](C)CC)NC(=O)[C@@H]2C[C@@H](O)CN2C(=O)C(C)(C)NC(=O)[C@H](Cc2ccccc2)NC(=O)[C@H](Cc2ccc(O)cc2)NC(=O)[C@H](CCCCNC(=O)CN2CCN(CC(=O)O)CCN(CC(=O)O)CCN(CC(=O)O)CC2)NC(=O)[C@H]([C@@H](C)O)NC1=O [UPAR-419, Pent-[Cys-Thr-Lys(DOTA)-Tyr-Phe-Aib-Hyp-Ile-Nva-Cys]-NH2] (Pentanoyl-CTK(DOTA)YF[Aib][Hyp]I[Nva]C-NH2; disulfide 1-10)",12.6 to 31.6,,10 to 100
"CCCCC(=O)N[C@H]1CCNC(=O)CC[C@@H](C(N)=O)NC(=O)[C@H](CCC)NC(=O)[C@H]([C@@H](C)CC)NC(=O)[C@@H]2C[C@@H](O)CN2C(=O)[C@@H]2CCCN2C(=O)[C@H](Cc2ccccc2)NC(=O)[C@H](Cc2ccc(O)cc2)NC(=O)[C@H](CCC(N)=O)NC(=O)[C@H](CCCNC(=N)N)NC1=O [UPAR-390, Pent-[Dab-Arg-Gln-Tyr-Phe-Pro-Hyp-Ile-Nva-Glu]-NH2] (Pentanoyl-[Dab]RQYFP[Hyp]I[Nva]E-NH2; lactam 1-10)",≥ 126,,> 100
"CCCCOC(=O)N[C@H]1CSSC[C@@H](C(N)=O)NC(=O)[C@H](CCC)NC(=O)[C@H]([C@@H](C)CC)NC(=O)[C@@H]2C[C@@H](O)CN2C(=O)[C@@H]2C[C@H](F)CN2C(=O)[C@H](Cc2ccccc2)NC(=O)[C@H](Cc2ccc(O)c(O)c2)NC(=O)[C@H](CCCCNC(=O)[C@@H](CC(=O)O)NC(=O)CN2CCN(CC(=O)O)CCN(CC(=O)O)CCN(CC(=O)O)CC2)NC(=O)[C@H]([C@@H](C)O)NC1=O [UPAR-459, Butoc-[Cys-Thr-Lys(DOTA-asp)-Dopa-Phe-4Cfp-Hyp-Ile-Nva-Cys]-NH2] (Butoxycarbonyl-CTK([dD-DOTA])[Dopa]F[Pro(cis-4-F)][Hyp]I[Nva]C-NH2; disulfide 1-10)",≤ 10,,< 1.58
"CCCCC(=O)N[C@H]1CSSC[C@@H](C(N)=O)NC(=O)[C@H](CCC)NC(=O)[C@H]([C@@H](C)CC)NC(=O)[C@@H](CN)NC(=O)[C@@H]2CCCN2C(=O)[C@H](Cc2ccccc2)NC(=O)[C@H](Cc2ccc(O)cc2)NC(=O)[C@H](CCC(N)=O)NC(=O)[C@H](CCCNC(=N)N)NC1=O [UPAR-330, Pent-[Cys-Arg-Gln-Tyr-Phe-Pro-dap-Ile-Nva-Cys]-NH2] (Pentanoyl-CRQYFP[dDap]I[Nva]C-NH2; disulfide 1-10)",≤ 10,< 1.58,
"CCCCCC(=O)N[C@H](C(=O)N[C@@H](CC(C)C)C(=O)N[C@H]1CSSC[C@@H](C(N)=O)NC(=O)[C@H](CC(C)C)NC(=O)[C@H]([C@@H](C)CC)NC(=O)[C@H](C)NC(=O)[C@@H]2CCCN2C(=O)[C@H](Cc2ccccc2)NC(=O)[C@H](Cc2ccc(O)cc2)NC(=O)[C@H](Cc2ccc(O)cc2)NC(=O)[C@H](CCC(=O)O)NC1=O)[C@@H](C)O [UPAR-143, Hex-Thr-Leu-[Cys-Glu-Tyr-Tyr-Phe-Pro-Ala-Ile-Leu-Cys]-NH2] (Hexanoyl-TLCEYYFPAILC-NH2; disulfide 3-12)",≤ 10,< 1.58,
"CC[C@H](C)[C@@H]1NC(=O)[C@@H](C)NC(=O)[C@@H]2CCCN2C(=O)[C@H](Cc2ccc(Cl)cc2)NC(=O)[C@H](Cc2ccc(O)cc2)NC(=O)[C@H](CCC(N)=O)NC(=O)[C@H](CCCNC(N)=O)NC(=O)[C@@H](NC(=O)CCC(C)C)CSSC[C@@H](C(N)=O)NC(=O)[C@H](CC(C)C)NC1=O [UPAR-332, iHex-[Cys-Cit-Gln-Tyr-Pcf-Pro-ala-Ile-Leu-Cys]-NH2] ({Pentanoyl(4-Me)}-C[Cit]QY[Phe(4-Cl)]P[dA]ILC-NH2; disulfide 1-10)",≤ 10,< 1.58,
"CC(C)CCC(=O)N[C@H]1CSSC[C@@H](C(N)=O)NC(=O)[C@H](CC(C)C)NC(=O)[C@H](C(C)(C)C)NC(=O)[C@@H](C)NC(=O)[C@@H]2CCCN2C(=O)[C@H](Cc2ccccc2)NC(=O)[C@H](Cc2ccc(O)cc2)NC(=O)[C@H](CCC(N)=O)NC(=O)[C@H](CCCNC(N)=O)NC1=O [UPAR-201, iHex-[Cys-Cit-Gln-Tyr-Phe-Pro-ala-Tle-Leu-Cys]-NH2] ({Pentanoyl(4-Me)}-C[Cit]QYFP[dA][Tle]LC-NH2; disulfide 1-10)",39.8 to 100,10 to 100,
"CCCCC(=O)N[C@H]1CSSC[C@@H](C(N)=O)NC(=O)[C@H](CCC)NC(=O)[C@H]([C@@H](C)CC)NC(=O)[C@@H]2C[C@@H](O)CN2C(=O)[C@@H]2C[C@@H](O)CN2C(=O)[C@H](Cc2ccccc2)NC(=O)[C@H](Cc2ccc(O)cc2)NC(=O)[C@H](CCCCNC(=O)CN2CCN(CC(=O)O)CCN(CC(=O)O)CCN(CC(=O)O)CC2)NC(=O)[C@H]([C@@H](C)O)NC1=O [UPAR-135, Pent-[Cys-Thr-Lys(DOTA)-Tyr-Phe-Hyp-Hyp-Ile-Nva-Cys]-NH2] (Pentanoyl-CTK(DOTA)YF[Hyp][Hyp]I[Nva]C-NH2; disulfide 1-10)",≤ 10,< 1.58,
"CC[C@H](C)[C@@H]1NC(=O)[C@@H](C)NC(=O)[C@@H]2CCCN2C(=O)[C@H](Cc2ccccc2)NC(=O)[C@H](Cc2ccc(O)cc2)NC(=O)[C@H](CCC(N)=O)NC(=O)[C@H](CCCNC(N)=O)NC(=O)[C@@H](NC(=O)CCCC(=O)O)CSSC[C@@H](C(N)=O)NC(=O)[C@H](CC(C)C)NC1=O [UPAR-359, Glutar-[Cys-Cit-Gln-Tyr-Phe-Pro-ala-Ile-Leu-Cys]-NH2] (Glutaryl-C[Cit]QYFP[dA]ILC-NH2; disulfide 1-10)",≥ 126,,> 100
